{"source": "paper doi:10.1101/2021.04.08.439011v1", "about": "(biorxiv, 2021)", "key": {"[1]": {"target": "ABL1(T315I) (Homo sapiens, UniProt P00519, T315I)", "conditions": "0.1 µM, binder"}, "[2]": {"target": "ABL1(Y253F) (Homo sapiens, UniProt P00519, Y253F)", "conditions": "phosphorylated; 0.1 µM; binder"}, "[3]": {"target": "ACVRL1 (Homo sapiens, UniProt P37023)", "conditions": "0.1 µM; binder"}, "[4]": {"target": "AMPK-alpha2 (Homo sapiens, UniProt P54646)", "conditions": "0.1 µM; binder"}, "[5]": {"target": "CAMKK2 (Homo sapiens, UniProt Q96RR4)", "conditions": "0.1 µM; binder"}, "[6]": {"target": "CDK19 (Homo sapiens, UniProt Q9BWU1)", "conditions": "0.1 µM; binder"}, "[7]": {"target": "CDKL1 (Homo sapiens, UniProt Q00532)", "sequence (Q00532 whole entry)": "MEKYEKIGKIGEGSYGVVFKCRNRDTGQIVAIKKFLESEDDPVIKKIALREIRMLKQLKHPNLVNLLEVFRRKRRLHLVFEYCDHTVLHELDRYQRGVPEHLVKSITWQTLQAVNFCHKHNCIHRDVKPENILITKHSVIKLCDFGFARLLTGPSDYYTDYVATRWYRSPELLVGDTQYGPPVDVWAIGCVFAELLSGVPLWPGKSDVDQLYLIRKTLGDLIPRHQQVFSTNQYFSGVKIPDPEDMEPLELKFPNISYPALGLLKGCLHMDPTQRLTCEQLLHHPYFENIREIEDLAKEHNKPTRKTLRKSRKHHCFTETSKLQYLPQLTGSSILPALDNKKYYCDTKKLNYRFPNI", "conditions": "0.1 µM; binder"}, "[8]": {"target": "CSK (Homo sapiens, UniProt P41240)", "conditions": "0.1 µM; binder"}, "[9]": {"target": "CSNK1D (Homo sapiens, UniProt P48730)", "conditions": "0.1 µM; binder"}, "[10]": {"target": "CSNK1E (Homo sapiens, UniProt P49674)", "sequence (P49674 whole entry)": "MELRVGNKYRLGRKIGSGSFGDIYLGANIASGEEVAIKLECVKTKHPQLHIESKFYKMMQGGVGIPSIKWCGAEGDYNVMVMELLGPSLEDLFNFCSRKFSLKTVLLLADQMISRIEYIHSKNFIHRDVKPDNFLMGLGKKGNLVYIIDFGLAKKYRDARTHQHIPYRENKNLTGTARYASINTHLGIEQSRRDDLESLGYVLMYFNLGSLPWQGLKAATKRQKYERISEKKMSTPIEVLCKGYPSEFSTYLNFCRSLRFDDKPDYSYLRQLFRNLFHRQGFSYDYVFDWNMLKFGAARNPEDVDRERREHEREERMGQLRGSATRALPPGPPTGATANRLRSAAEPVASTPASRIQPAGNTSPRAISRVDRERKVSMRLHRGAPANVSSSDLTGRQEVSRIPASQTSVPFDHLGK", "conditions": "0.1 µM; binder"}, "[11]": {"target": "CSNK1G3 (Homo sapiens, UniProt Q9Y6M4)", "sequence (Q9Y6M4 whole entry)": "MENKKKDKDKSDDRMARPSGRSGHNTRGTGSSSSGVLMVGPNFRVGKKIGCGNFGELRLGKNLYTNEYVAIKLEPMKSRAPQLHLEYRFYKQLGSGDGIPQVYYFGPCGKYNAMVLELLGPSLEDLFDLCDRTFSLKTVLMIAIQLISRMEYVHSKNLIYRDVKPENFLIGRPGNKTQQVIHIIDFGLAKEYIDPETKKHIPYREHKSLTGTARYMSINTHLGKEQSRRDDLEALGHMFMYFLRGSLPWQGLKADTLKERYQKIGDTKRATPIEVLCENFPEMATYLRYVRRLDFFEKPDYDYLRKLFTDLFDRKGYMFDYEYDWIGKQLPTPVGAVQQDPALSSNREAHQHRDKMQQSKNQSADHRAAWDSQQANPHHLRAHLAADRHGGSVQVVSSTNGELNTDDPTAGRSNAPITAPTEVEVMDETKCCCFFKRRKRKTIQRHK", "conditions": "0.1 µM; binder"}, "[12]": {"target": "DMPK2 (Homo sapiens, UniProt Q6DT37)", "conditions": "0.1 µM; binder"}, "[13]": {"target": "EGFR(L858R,T790M) (Homo sapiens, UniProt P00533, L858R/T790M)", "conditions": "0.1 µM; binder"}, "[14]": {"target": "ERBB3 (Homo sapiens, UniProt P21860)", "sequence (P21860 whole entry)": "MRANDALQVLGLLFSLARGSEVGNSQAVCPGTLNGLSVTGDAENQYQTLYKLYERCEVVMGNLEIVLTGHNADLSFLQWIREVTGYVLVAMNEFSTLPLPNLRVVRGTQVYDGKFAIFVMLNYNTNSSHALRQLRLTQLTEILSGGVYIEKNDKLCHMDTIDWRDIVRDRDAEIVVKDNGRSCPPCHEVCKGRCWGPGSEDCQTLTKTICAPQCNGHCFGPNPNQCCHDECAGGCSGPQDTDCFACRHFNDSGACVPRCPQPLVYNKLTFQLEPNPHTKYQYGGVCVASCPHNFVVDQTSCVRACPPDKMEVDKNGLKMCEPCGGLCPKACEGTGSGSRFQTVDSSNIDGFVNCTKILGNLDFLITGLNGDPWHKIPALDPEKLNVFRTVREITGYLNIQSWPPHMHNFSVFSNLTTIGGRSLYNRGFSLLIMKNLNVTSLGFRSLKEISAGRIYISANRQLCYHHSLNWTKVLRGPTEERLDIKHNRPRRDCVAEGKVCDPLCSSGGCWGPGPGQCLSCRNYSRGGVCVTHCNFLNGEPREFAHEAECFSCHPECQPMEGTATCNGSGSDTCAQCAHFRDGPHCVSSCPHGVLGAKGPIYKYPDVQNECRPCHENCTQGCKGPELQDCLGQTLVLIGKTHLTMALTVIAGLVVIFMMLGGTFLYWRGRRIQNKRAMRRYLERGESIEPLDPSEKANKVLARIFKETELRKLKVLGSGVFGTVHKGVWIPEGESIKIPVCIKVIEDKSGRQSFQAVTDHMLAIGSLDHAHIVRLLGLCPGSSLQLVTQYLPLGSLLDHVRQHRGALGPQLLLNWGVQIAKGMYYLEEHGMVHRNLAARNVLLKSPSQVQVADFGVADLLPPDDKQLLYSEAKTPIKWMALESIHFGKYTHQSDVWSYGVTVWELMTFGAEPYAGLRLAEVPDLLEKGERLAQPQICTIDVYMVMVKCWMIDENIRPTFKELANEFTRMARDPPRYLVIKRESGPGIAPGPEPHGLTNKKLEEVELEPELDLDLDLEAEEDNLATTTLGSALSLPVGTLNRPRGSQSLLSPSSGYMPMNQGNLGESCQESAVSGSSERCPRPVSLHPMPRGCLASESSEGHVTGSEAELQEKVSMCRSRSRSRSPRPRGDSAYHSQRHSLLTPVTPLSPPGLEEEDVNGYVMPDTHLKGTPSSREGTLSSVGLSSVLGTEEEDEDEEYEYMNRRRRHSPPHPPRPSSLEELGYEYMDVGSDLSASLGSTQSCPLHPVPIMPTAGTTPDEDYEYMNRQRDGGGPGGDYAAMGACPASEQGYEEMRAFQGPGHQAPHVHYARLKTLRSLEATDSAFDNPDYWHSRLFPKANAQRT", "conditions": "0.1 µM; binder"}, "[15]": {"target": "ERK2 (Homo sapiens, UniProt P28482)", "conditions": "0.1 µM; binder"}, "[16]": {"target": "KIT (Homo sapiens, UniProt P10721)", "sequence (P10721 whole entry)": "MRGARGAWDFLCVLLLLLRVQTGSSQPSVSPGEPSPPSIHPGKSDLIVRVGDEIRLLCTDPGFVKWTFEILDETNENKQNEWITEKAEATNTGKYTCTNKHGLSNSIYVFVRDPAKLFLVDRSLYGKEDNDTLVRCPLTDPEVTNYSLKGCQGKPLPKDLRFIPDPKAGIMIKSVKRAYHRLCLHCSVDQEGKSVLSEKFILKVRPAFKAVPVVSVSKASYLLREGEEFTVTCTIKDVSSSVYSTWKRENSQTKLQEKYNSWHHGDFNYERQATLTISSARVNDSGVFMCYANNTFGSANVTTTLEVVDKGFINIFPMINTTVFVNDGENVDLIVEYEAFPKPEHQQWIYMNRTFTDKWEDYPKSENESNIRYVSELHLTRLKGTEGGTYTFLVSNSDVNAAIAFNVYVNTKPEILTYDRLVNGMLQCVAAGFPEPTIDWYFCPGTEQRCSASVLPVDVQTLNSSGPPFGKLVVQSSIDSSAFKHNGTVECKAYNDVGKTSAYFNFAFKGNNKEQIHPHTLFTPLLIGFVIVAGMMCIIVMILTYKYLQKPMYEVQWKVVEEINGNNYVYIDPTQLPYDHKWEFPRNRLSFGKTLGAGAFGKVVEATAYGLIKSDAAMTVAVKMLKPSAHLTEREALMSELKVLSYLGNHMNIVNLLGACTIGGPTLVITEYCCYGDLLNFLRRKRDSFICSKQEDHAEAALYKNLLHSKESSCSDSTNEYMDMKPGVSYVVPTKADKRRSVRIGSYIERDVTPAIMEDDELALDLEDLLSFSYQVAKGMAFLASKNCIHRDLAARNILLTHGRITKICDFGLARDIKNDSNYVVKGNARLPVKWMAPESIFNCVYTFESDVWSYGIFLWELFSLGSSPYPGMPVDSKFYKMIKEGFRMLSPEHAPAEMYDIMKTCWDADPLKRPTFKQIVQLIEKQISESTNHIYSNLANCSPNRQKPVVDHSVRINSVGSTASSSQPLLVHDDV", "conditions": "0.1 µM, binder"}, "[17]": {"target": "MAP3K2 (Homo sapiens, UniProt Q9Y2U5)", "conditions": "0.1 µM; binder"}, "[18]": {"target": "NEK5 (Homo sapiens, UniProt Q6P3R8)", "conditions": "0.1 µM; binder"}, "[19]": {"target": "PIK3CA(E545K) (Homo sapiens, UniProt P42336, E545K)", "conditions": "0.1 µM; binder"}, "[20]": {"target": "PIP5K1A (Homo sapiens, UniProt Q99755)", "conditions": "0.1 µM; binder"}, "[21]": {"target": "PKAC-beta (Homo sapiens, UniProt P22694)", "conditions": "0.1 µM; binder"}, "[22]": {"target": "SGK3 (Homo sapiens, UniProt Q96BR1)", "conditions": "0.1 µM; binder"}, "[23]": {"target": "SRPK1 (Homo sapiens, UniProt Q96SB4)", "conditions": "0.1 µM; binder"}, "[24]": {"target": "SYK (Homo sapiens, UniProt P43405)", "conditions": "0.1 µM; binder"}, "[25]": {"target": "TBK1 (Homo sapiens, UniProt Q9UHD2)", "conditions": "0.1 µM; binder"}, "[26]": {"target": "TLK2 (Homo sapiens, UniProt Q86UE8)", "conditions": "0.1 µM; binder"}, "[27]": {"target": "TRKB (Homo sapiens, UniProt Q16620)", "conditions": "0.1 µM; binder"}, "[28]": {"target": "TYRO3 (Homo sapiens, UniProt Q06418)", "sequence (Q06418 whole entry)": "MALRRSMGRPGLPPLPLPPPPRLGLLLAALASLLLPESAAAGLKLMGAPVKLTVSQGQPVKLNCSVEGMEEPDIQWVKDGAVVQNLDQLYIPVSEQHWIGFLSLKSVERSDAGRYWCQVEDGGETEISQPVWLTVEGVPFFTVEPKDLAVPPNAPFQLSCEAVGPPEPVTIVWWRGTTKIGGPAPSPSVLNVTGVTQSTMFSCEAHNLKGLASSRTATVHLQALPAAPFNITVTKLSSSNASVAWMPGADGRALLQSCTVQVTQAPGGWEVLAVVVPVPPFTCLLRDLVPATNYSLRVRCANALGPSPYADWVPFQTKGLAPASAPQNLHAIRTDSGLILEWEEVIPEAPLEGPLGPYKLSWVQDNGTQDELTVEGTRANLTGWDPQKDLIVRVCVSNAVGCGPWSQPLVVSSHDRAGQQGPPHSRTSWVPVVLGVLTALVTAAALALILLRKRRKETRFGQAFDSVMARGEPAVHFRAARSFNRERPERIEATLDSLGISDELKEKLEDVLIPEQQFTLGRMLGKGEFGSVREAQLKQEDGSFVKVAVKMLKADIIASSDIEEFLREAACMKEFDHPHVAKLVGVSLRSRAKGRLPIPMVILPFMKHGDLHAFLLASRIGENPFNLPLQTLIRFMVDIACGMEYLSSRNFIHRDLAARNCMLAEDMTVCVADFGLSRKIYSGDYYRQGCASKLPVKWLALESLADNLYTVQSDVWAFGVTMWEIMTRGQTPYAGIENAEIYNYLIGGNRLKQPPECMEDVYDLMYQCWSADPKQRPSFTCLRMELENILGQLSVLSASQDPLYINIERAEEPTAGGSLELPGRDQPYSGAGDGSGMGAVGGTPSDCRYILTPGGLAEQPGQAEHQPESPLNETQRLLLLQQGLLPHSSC", "conditions": "0.1 µM; binder"}, "[29]": {"target": "VPS34 (Homo sapiens, UniProt Q8NEB9)", "conditions": "0.1 µM; binder"}, "[30]": {"target": "YANK3 (Homo sapiens, UniProt Q86UX6)", "sequence (Q86UX6 whole entry)": "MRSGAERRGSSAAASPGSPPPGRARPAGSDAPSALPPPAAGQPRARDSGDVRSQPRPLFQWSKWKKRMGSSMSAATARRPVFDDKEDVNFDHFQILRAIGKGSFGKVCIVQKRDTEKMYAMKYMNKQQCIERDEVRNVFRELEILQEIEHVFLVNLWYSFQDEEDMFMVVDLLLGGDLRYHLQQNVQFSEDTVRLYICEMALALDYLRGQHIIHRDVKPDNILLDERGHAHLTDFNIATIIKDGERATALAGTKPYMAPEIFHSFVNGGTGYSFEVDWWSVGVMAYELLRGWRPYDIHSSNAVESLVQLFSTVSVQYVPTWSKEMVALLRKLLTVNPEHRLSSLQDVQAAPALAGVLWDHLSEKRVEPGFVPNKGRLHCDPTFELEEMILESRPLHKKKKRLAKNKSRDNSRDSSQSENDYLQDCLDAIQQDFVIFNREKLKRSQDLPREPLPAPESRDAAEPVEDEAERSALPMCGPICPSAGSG", "conditions": "0.1 µM; binder"}}, "note": "Like-named read-outs stand apart in the source and are kept apart here."}
{"smiles": "CNc1ncc2cc(-c3ccc(-c4cccc(C)n4)cc3Cl)c(=O)n(C[C@H]3OC[C@H](N)CO3)c2n1", "note": "[compound 6, G-5555]", "values": [{"measurement": "Percent Control", "setting": "[1]; nonphosphorylated", "result": 90, "unit": "%"}, {"measurement": "Percent Control", "setting": "[1]; phosphorylated", "result": 100, "unit": "%"}, {"measurement": "Percent Control", "setting": "[2]", "result": 97, "unit": "%"}, {"measurement": "Percent Control", "setting": "[3]", "result": 100, "unit": "%"}, {"measurement": "Percent Control", "setting": "[4]", "result": 93, "unit": "%"}, {"measurement": "Percent Control", "setting": "[5]", "result": 100, "unit": "%"}, {"measurement": "Percent Control", "setting": "[6]", "result": 87, "unit": "%"}, {"measurement": "Percent Control", "setting": "[7]", "result": 100, "unit": "%"}, {"measurement": "Percent Control", "setting": "[8]", "result": 100, "unit": "%"}, {"measurement": "Percent Control", "setting": "[9]", "result": 90, "unit": "%"}, {"measurement": "Percent Control", "setting": "[10]", "result": 100, "unit": "%"}, {"measurement": "Percent Control", "setting": "[11]", "result": 100, "unit": "%"}, {"measurement": "Percent Control", "setting": "[12]", "result": 89, "unit": "%"}, {"measurement": "Percent Control", "setting": "[13]", "result": 100, "unit": "%"}, {"measurement": "Percent Control", "setting": "[14]", "result": 77, "unit": "%"}, {"measurement": "Percent Control", "setting": "[15]", "result": 100, "unit": "%"}, {"measurement": "Percent Control", "setting": "[16]", "result": 100, "unit": "%"}, {"measurement": "Percent Control", "setting": "[16]; autoinhibited", "result": 82, "unit": "%"}, {"measurement": "Percent Control", "setting": "[17]", "result": 97, "unit": "%"}, {"measurement": "Percent Control", "setting": "[18]", "result": 100, "unit": "%"}, {"measurement": "Percent Control", "setting": "[19]", "result": 85, "unit": "%"}, {"measurement": "Percent Control", "setting": "[20]", "result": 48, "unit": "%"}, {"measurement": "Percent Control", "setting": "[21]", "result": 100, "unit": "%"}, {"measurement": "Percent Control", "setting": "[22]", "result": 93, "unit": "%"}, {"measurement": "Percent Control", "setting": "[23]", "result": 94, "unit": "%"}, {"measurement": "Percent Control", "setting": "[24]", "result": 100, "unit": "%"}, {"measurement": "Percent Control", "setting": "[25]", "result": 100, "unit": "%"}, {"measurement": "Percent Control", "setting": "[26]", "result": 100, "unit": "%"}, {"measurement": "Percent Control", "setting": "[27]", "result": 100, "unit": "%"}, {"measurement": "Percent Control", "setting": "[28]", "result": 96, "unit": "%"}, {"measurement": "Percent Control", "setting": "[29]", "result": 86, "unit": "%"}, {"measurement": "Percent Control", "setting": "[30]", "result": 99, "unit": "%"}]}
